According to US9359281B2, “Enantiomers of 2-hydroxy derivatives of fatty acids” (UNIVERSITAT DE LES ILLES BALEARS, priority 2011, dated 2016):
“And” between values parts separate entries of the source, which are not always exact repeats. Identical values can stand only once.

Experiments:
BXPC3 cells = assay: Cell growth inhibition, BXPC3; type: cell-based, human; details: BXPC3, sodium salt form
Description: (§1) At this respect, concentrations which inhibit growth of tumour cells (IC50) are lower for the enantiomer S ([−]) in all studied tumour lines (Table 5). […] In all of the cases, the molecules employed were in the form of sodium salt.

HepG2 cells = assay: Cell growth inhibition, HepG2; type: cell-based, human; details: HepG2, sodium salt form
Description: as §1

MRC-5 cells = assay: Cell growth inhibition, MRC-5; type: cell-based, human; details: MRC-5 non tumor fibroblast, sodium salt form
Description: as §1

PC3 cells = assay: Cell growth inhibition, PC3; type: cell-based, human; details: PC3, sodium salt form
Description: as §1

[1] = Plasmatic glucose levels in SHR rats; type: in vivo; details: 600 mg/kg, 12 h, 15 days, by mouth
Description: E. Effects on […] (plasmatic glucose levels): SHR rats were treated with vehicle (control), racemic 2OHOA and their optical isomers [−] 2OHOA and [+]2OHOA (600 mg/kg, 12 h, 15 days, by mouth). The racemic compound and the [−]
(§2) What is more, we studied the effect of the isomers above on arterial pressure, body weight, and the level of cholesterol, triglycerides and glycemia (glucose in plasma) in SHR rats SHR (FIGS. 8B, 8C and 8D and 8E). […] Similarly, during 1 and 5 days of treatment, rats treated with the racemic loosed 11 gram of weight (approximately a 3% of their body weight), whereas animals of the group treated with enantiomer [−]2OHOA loosed 21 grams and animals of the group treated with enantiomer [+]2OHOA only loosed 7 grams of weight. On the other hand, a higher effect of enantiomer [+]2OHOA in the reduction of triglyceride (TG) and total cholesterol (CHOt) levels was observed (FIG. 8D) At this respect, plasmatic basal levels of TG in SHR rats are of 108 mg/dl and were reduced to 56 mg/dl after 2 weeks treatment […]. On the other hand, treatment with enantiomer [+]2OHOA inducted a reduction of plasmatic TG levels to 47 mg/dl, whereas enantiomer [−]2OHOA only produced a modest reduction to 81 mg/dl. In parallel, levels of CHOt were reduced from 73 mg/dl to 43 mg/dl (racemic), 36 mg/dl (enantiomer [+]2OHOA) and 59 mg/dl (enantiomer [−]2OHOA), respectively.

[2] = Triglyceride and total cholesterol levels in SHR rats; type: in vivo; details: 600 mg/kg every 12 h, orally; for CHOt levels after treatment: 15 days, basal 73 mg/dl
Description: D. Effects on cholesterol and triglyceride levels: SHR rats were treated with 2OHOA racemic (+/−) and its optic isomers [−]2OHOA and [+]2OHOA (600 mg/kg every 12 h, 15 days, orally). […] Values of average±EEM seric levels of lipids expressed as mg/dl (ordinate axis; n=6) are shown.
as §2

Body weight of SHR rats = type: in vivo; details: 600 mg/kg·day, 5 days, orally
Description: C. Effect on body weight: SHR rats were treated with 2OHOA racemic (+/−) and its optic isomers [−]2OHOA and [+]2OHOA (600 mg/kg·day, 5 days, orally). […] Values of average±EEM body weight (abscises axis, n=6) are shown.
as §2

MDA-MB-231 cells = assay: Cell growth inhibition, MDA-MB-231; type: cell-based, human; details: MDA-MB-231, sodium salt form
Description: as §1

[3] = test system: human glioma (SF767) cells; assay: Volume of human glioma (SF767) tumours in immuno-depressed mice; type: in vivo; details: for Effect: variation in the size of the tumour compared with untreated animals: 15 days
Description: (§3) This example recounts the study carried out on immuno-depressed mice infected with human glioma (SF767) cells and treated for 15 days (orally) with the indicated dose (Table 3).

[4] = Toxicity and side effects (symptoms) in treated tumour-bearing mice; type: in vivo; details: for Toxicity: symptoms registered / Toxicity: Behaviour symptoms, percentage of animals / Toxicity: Diarrhoea, percentage of animals: 15 days
Description: as §3

U937 cells = assay: Cell growth inhibition, U937; type: cell-based, human; details: U937, sodium salt form
Description: as §1

A549 cells = assay: Cell growth inhibition, A549; type: cell-based, human
Description: as §1

IMR90 cells = assay: Cell growth inhibition, IMR90; type: cell-based, human; details: IMR90 non tumor fibroblast, sodium salt form
Description: as §1

HT29 cells = assay: Cell growth inhibition, HT29; type: cell-based, human; details: HT29, sodium salt form
Description: as §1

A375 cells = assay: Cell growth inhibition, A375; type: cell-based, human; details: A375, sodium salt form
Description: as §1

SH-SY5Y cells = assay: Cell growth inhibition, SH-SY5Y; type: cell-based, human; details: SH-SY5Y, sodium salt form
Description: as §1

SF767 cells = assay: Cell growth inhibition, SF767; type: cell-based, human; details: SF767, sodium salt form
Description: as §1

U118 cells [5] = assay: Levels of SM in cell membranes, U118; type: cell-based, human; set-up: SM levels in the cell membrane (activation of enzyme EC 2.7.8.27): dose or concentration left out as unconfirmed; details: for SM levels in the cell membrane (activation of enzyme EC 2.7.8.27): U118, 24 hours
U118 cells [6] = assay: Cell growth inhibition, U118; type: cell-based, human; details: U118, sodium salt form
Description: as §1

SMILES: CCCCCCCC/C=C\CCCCCCC(O)C(=O)O (stereo not drawn) [[+]2OHOA] [[+]HOOC—HOCH—(CH2)6—(CH═CH—CH2)1—(CH2)6—CH3]
- IC50 (BXPC3 cells): 154 µM
- IC50 (HepG2 cells): 76.7 µM
- IC50 (MRC-5 cells): > 5000 µM
- IC50 (PC3 cells): 233 µM
- plasma glucose levels (glycemia) [1]: reduction without statistical significance
- plasmatic TG levels after treatment ([2]; 2 weeks, basal 108 mg/dl, 600 mg/kg): 56 mg/dL and 47 mg/dL
- CHOt levels after treatment ([2]; 600 mg/kg): 36 mg/dL
- loss of body weight (Body weight of SHR rats; 600 mg/kg): 7 gram
- IC50 (MDA-MB-231 cells): 328 µM
- Effect: variation in the size of the tumour compared with untreated animals ([3]; 50 mg/kg orally): −2%
- Effect: variation in the size of the tumour compared with untreated animals ([3]; 75 mg/kg orally): +7%
- Effect: variation in the size of the tumour compared with untreated animals ([3]; 100 mg/kg orally): −3%
- Effect: variation in the size of the tumour compared with untreated animals ([3]; 150 mg/kg orally): +1%
- Effect: variation in the size of the tumour compared with untreated animals ([3]; 200 mg/kg orally): −4%
- Effect: variation in the size of the tumour compared with untreated animals ([3]; 400 mg/kg orally): −2%
- Effect: variation in the size of the tumour compared with untreated animals ([3]; 600 mg/kg orally): +3%
- activity on tumour volume after 15 days of treatment ([3]; indicated doses (50-600 mg/kg), orally): showed no activity
- Toxicity: symptoms registered ([4]; 50 mg/kg orally): No
- Toxicity: symptoms registered ([4]; 75 mg/kg orally): No
- Toxicity: symptoms registered ([4]; 100 mg/kg orally): No
- Toxicity: symptoms registered ([4]; 150 mg/kg orally): No
- Toxicity: Behaviour symptoms, percentage of animals ([4]; 200 mg/kg orally): Behaviour 16%
- Toxicity: Diarrhoea, percentage of animals ([4]; 200 mg/kg orally): Diarrhoea 16%
- Toxicity: Behaviour symptoms, percentage of animals ([4]; 400 mg/kg orally): Behaviour 32%
- Toxicity: Diarrhoea, percentage of animals ([4]; 400 mg/kg orally): Diarrhoea 16%
- Toxicity: Behaviour symptoms, percentage of animals ([4]; 600 mg/kg orally): Behaviour 50%
- Toxicity: Diarrhoea, percentage of animals ([4]; 600 mg/kg orally): Diarrhoea 66%
- IC50 (U937 cells): 214 µM
- IC50 (A549 cells; A549, sodium salt form): 133 µM
- IC50 (A549 cells; A549, sodium salt form, listed as [+]2OH18:1): 133 ± 9.8 µM
- IC50 (IMR90 cells): > 5000 µM
- IC50 (HT29 cells): 342 µM
- IC50 (A375 cells): 407 µM
- IC50 (SH-SY5Y cells): 193 µM
- IC50 (SF767 cells): 304 µM
- SM levels in the cell membrane (activation of enzyme EC 2.7.8.27) (U118 cells [5]): decrease in the level of SM in membranes
- IC50 (U118 cells [6]): 212 µM

SMILES: CCCCCCCC/C=C\CCCCCCC(O)C(=O)O (racemic) [2OHOA, 2-hydroxyoleic acid]
- IC50 (BXPC3 cells; Homo sapiens, BXPC-3): 98.3 µM
- IC50 (HepG2 cells; Homo sapiens): 41.4 µM
- IC50 (MRC-5 cells; Homo sapiens, MRC5): > 5000 µM
- IC50 (PC3 cells; Homo sapiens, PC-3): 138 µM
- plasma glucose levels (glycemia) [1]: significant reductions
- CHOt levels after treatment [2]: 43 mg/dL
- loss of body weight (Body weight of SHR rats): 11 gram
- loss of body weight as share of body weight (Body weight of SHR rats): ~3%
- IC50 (MDA-MB-231 cells; Homo sapiens): 244 µM
- Effect: variation in the size of the tumour compared with untreated animals ([3]; 50 mg/kg orally): +2%
- Effect: variation in the size of the tumour compared with untreated animals ([3]; 75 mg/kg orally): −7%
- Effect: variation in the size of the tumour compared with untreated animals ([3]; 100 mg/kg orally): −8%
- Effect: variation in the size of the tumour compared with untreated animals ([3]; 150 mg/kg orally): −17%
- Effect: variation in the size of the tumour compared with untreated animals ([3]; 200 mg/kg orally): −23%
- decrease in the volume of the tumour ([3]; 200 mg/kg, 15 days orally): 23%
- Effect: variation in the size of the tumour compared with untreated animals ([3]; 400 mg/kg orally): −39%
- Effect: variation in the size of the tumour compared with untreated animals ([3]; 600 mg/kg orally): −37%
- Toxicity: symptoms registered ([4]; 50 mg/kg orally): No
- Toxicity: symptoms registered ([4]; 75 mg/kg orally): No
- Toxicity: symptoms registered ([4]; 100 mg/kg orally): No
- Toxicity: symptoms registered ([4]; 150 mg/kg orally): No
- Toxicity: Behaviour symptoms, percentage of animals ([4]; 200 mg/kg orally): Behaviour 16%
- Toxicity: Diarrhoea, percentage of animals ([4]; 200 mg/kg orally): Diarrhoea 16%
- Toxicity: Behaviour symptoms, percentage of animals ([4]; 400 mg/kg orally): Behaviour 16%
- Toxicity: Diarrhoea, percentage of animals ([4]; 400 mg/kg orally): Diarrhoea 32%
- Toxicity: Behaviour symptoms, percentage of animals ([4]; 600 mg/kg orally): Behaviour 50%
- Toxicity: Diarrhoea, percentage of animals ([4]; 600 mg/kg orally): Diarrhoea 50%
- side effects ([4]; 600 mg/kg, 15 days orally): important side effects
- IC50 (U937 cells; Homo sapiens, U-937): 183 µM
- IC50 (A549 cells; Homo sapiens, A549, A549, sodium salt form): 94.1 ± 8.8 µM
- IC50 (IMR90 cells; Homo sapiens, IMR-90): > 5000 µM
- IC50 (HT29 cells; Homo sapiens, HT-29): 225 µM
- IC50 (A375 cells; Homo sapiens, A-375): 273 µM
- IC50 (SH-SY5Y cells; Homo sapiens): 119 µM
- IC50 (SF767 cells; Homo sapiens): 215 µM
- synthesis of SM (U118 cells [5]; U118, 200 μM, 24 hours): significant increase
- SM levels in the cell membrane (activation of enzyme EC 2.7.8.27) (U118 cells [5]): significant increases in SM levels
- IC50 (U118 cells [6]; Homo sapiens): 142 µM
